Measurements published in patent US11079373B2, “Biomarker detection methods and systems and kits for practicing same” (The Board of Trustees of the Leland Stanford Junior …, priority 2015, dated 2021).

Legend:
Assay type in all cases: cell-based, human
[1] = tested on: peripheral blood mononuclear cells (PBMC); test: FlowSpot IFNγ secretion in situ detection, PBMC co-cultured with IFNγ capture microparticles in presence of PHA; conditions: 16 h; for FLOWSPOT SPOTS (n) (IFNγ): percent positive × 7,000
Description: (§1) One hundred thousand peripheral blood mononuclear cells (0.1×10^6 PBMC) or purified lymphocytes were mixed with 7,000 capture microspheres and distributed into each assay well of a 96-well U bottom plate. The plate was centrifuged at 1,500×g for 5 min and the supernatant was removed. The pellet of cells and capture beads were resuspended in 200 μL culture medium with or without testing reagent(s) or stimulus(i), then the plate was incubated in a humidified 37° C., 5% CO2 incubator for 10 min to 7 days (usually 2 to 16 h). After incubation, the cells were lysed in NP-40 lysis buffer (10 mM Tris-HCl, pH 7.4, 10 mM NaCl, 3 mM MgCl2, 0.5% NP-40). The capture beads were washed twice with 3% HBSA (3% BSA in HBSS) and incubated with 50 μL PE-labeled anti-Bio-marker for 60 min at room temperature. After two washes of 3% HBSA, the beads were acquired and analyzed on a BD FACSCanto II flow cytometer. The number of positive spots was calculated based on the following formulas: Percent positive spots (%)=Number of positive particles acquired/Total number of particles acquired×100 Total number of positive spots=Percent positive spots (%)×7,000 (where 7,000=total number of particles/test)
In parallel, 0.1×10^6 PBMC cells from the same donor were co-cultured with 7,000 IFNγ capture microparticles in a humidified 37° C., 5% CO2 incubator for 16 h in the presence of PHA at various concentrations. After incubation, the cells were lysed in NP-40 lysis buffer (10 mM Tris-HCl, pH 7.4, 10 mM NaCl, 3 mM MgCl2, 0.5% NP-40). The capture beads were washed twice with 3% HBSA (3% BSA in HBSS) and incubated with 50 μL PE-labeled anti-IFNγ for 60 min at room temperature. After an additional two washes of 3% HBSA, the beads were acquired and analyzed on a BD FACSCanto II flow cytometer.

PBMC cells = test: Three-color IFNγ/IL-2/GrB detection by […]; conditions: PHA 20 ug/mL, 16 h
[2] = tested on: peripheral blood mononuclear cells (PBMC); test: Cytometric Bead Array (CBA) IFNγ secretion detection in culture media of PHA-treated PBMC; conditions: 16 h, culture medium
Description: One hundred thousand peripheral blood mononuclear cells (0.1×10^6 PBMC) in 100 μL of 10% FBS RPMI 1640 containing varying concentrations of PHA were seeded in each well in a 96 well plate and incubated in a humidified 37° C., 5% CO2 incubator for 16 h. The plate was centrifuged at 2,500 g for 3 min and 50 μL culture medium of each well was carefully transferred into each corresponding test well in a new 96 well plate. After adding 50 μL INFγ capture beads (BD Biosciences; Cat. 558269) into each well, the plate was incubated at room temperature (RT) for 60 min with constant shaking on a plate shaker. After adding 50 μL INFγ PE-detection reagents (BD Biosciences; Cat. 51-9004031), the plate was continually incubated at RT for additional 2 h. The beads were then washed three times with 200 μL wash buffer (0.05% Tween-20 in PBS) and acquired on a BD FACSCanto II flow cytometer. The concentrations of INFγ in the culture media from each well were extrapolated from the standard curve generated from a series of known INFγ standards in the same batch of CBA assay.

C.T.L. cells = test: Two-color IFNγ/IL-2 detection by FLOWSPOT; conditions: PHA at various concentrations, 16 h
Description: as §1
One hundred thousand C.T.L. cells were co-cultured with a mix of IFNγ and IL-2 capture microparticles (7,000 each with different fluorescent ID codes) for 16 h in the presence of PHA at various concentrations.

phytohaemagglutinin [PHA]
FLOWSPOT MFI (IFNγ) ([1]; PHA 0.5 μg/mL): 166
FLOWSPOT % Positive Spot (IFNγ) ([1]; PHA 0.5 μg/mL, 0.1×10^6 PBMC, 7,000 microparticles): 24%
FLOWSPOT SPOTS (n) (IFNγ) ([1]; PHA 0.5 μg/mL): 1680 n
FLOWSPOT % Positive Spot (IFNγ) ([1]; PHA 1 μg/mL): 35%
FLOWSPOT MFI (IFNγ) ([1]; PHA 1 μg/mL): 659
FLOWSPOT SPOTS (n) (IFNγ) ([1]; PHA 1 μg/mL): 2450 n
FLOWSPOT % Positive Spot (IFNγ) ([1]; PHA 2.5 μg/mL): 43%
FLOWSPOT MFI (IFNγ) ([1]; PHA 2.5 μg/mL): 4050
FLOWSPOT SPOTS (n) (IFNγ) ([1]; PHA 2.5 μg/mL): 3010 n
FLOWSPOT % Positive Spot (IFNγ) ([1]; PHA 5 μg/mL): 45%
FLOWSPOT MFI (IFNγ) ([1]; PHA 5 μg/mL): 9541
FLOWSPOT SPOTS (n) (IFNγ) ([1]; PHA 5 μg/mL): 3150 n
FLOWSPOT % Positive Spot (IFNγ) ([1]; PHA 10 μg/mL): 56%
FLOWSPOT MFI (IFNγ) ([1]; PHA 10 μg/mL): 19594
FLOWSPOT SPOTS (n) (IFNγ) ([1]; PHA 10 μg/mL): 3920 n
FLOWSPOT % Positive Spot (IFNγ) ([1]; PHA 15 μg/mL): 57%
FLOWSPOT MFI (IFNγ) ([1]; PHA 15 μg/mL): 21680
FLOWSPOT SPOTS (n) (IFNγ) ([1]; PHA 15 μg/mL): 3990 n
FLOWSPOT % Positive Spot (IFNγ) ([1]; PHA 20 μg/mL): 55%
FLOWSPOT MFI (IFNγ) ([1]; PHA 20 μg/mL): 22241
FLOWSPOT SPOTS (n) (IFNγ) ([1]; PHA 20 μg/mL): 3850 n
median channel value (MCV), intensity of IFNγ secretion (PBMC cells): 653
median channel value (MCV), intensity of IL-2 secretion (PBMC cells): 407
number of positive spots for GrB (PBMC cells): 630 spots
number of positive spots for IFNγ (PBMC cells): 5,320 spots
number of positive spots for IL-2 (PBMC cells): 4,340 spots
CBA IFNγ ([2]; PHA 0.5 μg/mL, from standard curve): 17 pg/mL
CBA IFNγ ([2]; PHA 1 μg/mL): 36 pg/mL
CBA IFNγ ([2]; PHA 2.5 μg/mL): 76 pg/mL
CBA IFNγ ([2]; PHA 5 μg/mL): 174 pg/mL
CBA IFNγ ([2]; PHA 10 μg/mL): 281 pg/mL
CBA IFNγ ([2]; PHA 15 μg/mL): 344 pg/mL
CBA IFNγ ([2]; PHA 20 μg/mL): 312 pg/mL
IFNγ response to PHA (C.T.L. cells): dose-dependent responses
IL-2 response to PHA (C.T.L. cells): dose-dependent responses
